Data taken from PubChem BioAssay (NCI).
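96-well plates; 48 h exposure; 5 concentrations. Endpoints by linear interpolation between flanking doses. Not reached: highest tested concentration assigned. The concentration for 50% growth inhibition is given as GI50. TGI marks complete inhibition of growth.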

Legend:
Experiment in all cases: NCI anticancer screen, dose series, 48 h
[1] = tested on: LOX IMVI melanoma
[2] = tested on: SF-539 CNS
[3] = tested on: OVCAR-8 ovarian
[4] = tested on: TK-10 renal
[5] = tested on: SF-268 CNS
[6] = tested on: OVCAR-3 ovarian
[7] = tested on: MALME-3M melanoma
[8] = tested on: NCI-H522 lung
[9] = tested on: T-47D breast
[10] = tested on: DU-145 prostate
[11] = tested on: SF-295 CNS
[12] = tested on: 786-0 renal
[13] = tested on: UACC-257 melanoma
[14] = tested on: K-562 leukemia
[15] = tested on: RPMI-8226 leukemia
[16] = tested on: PC-3 prostate
[17] = tested on: SW-620 colon
[18] = tested on: MCF7 breast
[19] = tested on: EKVX NSCLC
[20] = tested on: HCT-116 colon
[21] = tested on: SK-MEL-5 melanoma
[22] = tested on: A549 NSCLC
[23] = tested on: HCC-2998 colon
[24] = tested on: NCI-H226 lung
[25] = tested on: COLO 205 colon
[26] = tested on: SNB-75 CNS
[27] = tested on: U251 CNS
[28] = tested on: SNB-19 CNS
[29] = tested on: MOLT-4 leukemia

SMILES: COc1ccc2c(c1)C(=O)c1c-2n(CCCCl)c(=O)c2cc(OC)c(OC)cc12
- GI50 [1]: 6.87 µM
- TGI [1]: > 61.9 µM
- GI50 [2]: 6.29 µM
- TGI [2]: > 57.3 µM
- GI50 [3]: 53.4 µM
- TGI [3]: > 100 µM
- GI50 [4]: > 70.2 µM
- TGI [4]: > 100 µM
- GI50 [5]: 8.63 µM
- TGI [5]: > 100 µM
- GI50 [6]: 82.3 µM
- TGI [6]: > 100 µM
- GI50 [7]: 18.6 µM
- TGI [7]: > 96.1 µM
- GI50 [8]: 9.12 µM
- TGI [8]: > 95 µM
- GI50 [9]: 13.5 µM
- TGI [9]: > 100 µM
- GI50 [10]: 4.01 µM
- TGI [10]: > 48.1 µM
- GI50 [11]: 3.99 µM
- TGI [11]: > 100 µM
- GI50 [12]: 5.41 µM
- TGI [12]: 31.7 µM
- GI50 [13]: 45.3 µM
- TGI [13]: > 100 µM
- GI50 [14]: 32.4 µM
- TGI [14]: > 100 µM
- GI50 [15]: 2.14 µM
- TGI [15]: 14.5 µM
- GI50 [16]: 41.5 µM
- TGI [16]: > 100 µM
- GI50 [17]: 19.6 µM
- TGI [17]: > 100 µM
- GI50 [18]: 6.27 µM
- TGI [18]: > 100 µM
- GI50 [19]: > 100 µM
- TGI [19]: > 100 µM
- GI50 [20]: 8.68 µM
- TGI [20]: > 100 µM
- GI50 [21]: 9.2 µM
- TGI [21]: 30.1 µM
- GI50 [22]: 12 µM
- TGI [22]: > 100 µM
- GI50 [23]: 17.4 µM
- TGI [23]: > 95.9 µM
- GI50 [24]: > 79.1 µM
- TGI [24]: > 100 µM
- GI50 [25]: > 100 µM
- TGI [25]: > 100 µM
- GI50 [26]: > 24.7 µM
- TGI [26]: > 75.5 µM
- GI50 [27]: 5.95 µM
- TGI [27]: > 100 µM
- GI50 [28]: 13.2 µM
- TGI [28]: > 100 µM
- GI50 [29]: 2.55 µM
